In patent publication US9113629B2, “4-amino-6-(4-substituted-phenyl)-picolinates and 6-amino-2-(4-substituted-phenyl)-pyrimidine-4-carboxylates and their use as herbicides” (DOW AGROSCIENCES LLC, priority 2013, dated 2015):
Like-named read-outs stand apart in the source and are kept apart here.

What was measured:
[1] = tested on: Key Broadleaf Weed and Crop Species; assay: Post-emergent Test II herbicidal activity (Table 5); format: in vivo; settings: post-emergence, 336 h, 14 days after application; for pest or weed control at 66 g/ha: application rate 66 g ai/ha; for pest or weed control at 132 g/ha: application rate 132 g ai/ha
Outline: (§1)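 Post-emergence foliar spray, 187 L/ha, track sprayer at 43 cm above canopy. Carrier: acetone/water/IPA/DMSO/Atplus 411F/Triton X-155. Plants at 1st–2nd true leaf; subirrigated afterwards; % injury scored visually at 14 d.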

[2] = tested on: Key Grass and Sedge Weeds as well as Grass Crops; assay: Post-emergent Test II herbicidal activity (Table 6); format: in vivo; settings: post-emergence, 336 h; for pest or weed control at 66 g/ha: 66 g ai/ha; for pest or weed control at 132 g/ha: 132 g ai/ha
Outline: as §1

[3] = ABUTH: velvetleaf (Abutilon theophrasti), read-out: Visual Growth Reduction (%) 14 Days After Application, ABUTH
[4] = AMARE: redroot pigweed (Amaranthus retroflexus), read-out: Visual Growth Reduction (%) 14 Days After Application, AMARE
[5] = BRSNN: oilseed-rape, canola (Brassica napus), read-out: Visual Growth Reduction (%) 14 Days After Application, BRSNN
[6] = CHEAL: lambsquarters (Chenopodium album), read-out: Visual Growth Reduction (%) 14 Days After Application, CHEAL
[7] = EPHHL: wild poinsettia (Euphorbia heterophylla), read-out: Visual Growth Reduction (%) 14 Days After Application, EPHHL
[8] = HELAN: sunflower (Helianthus annuus), read-out: Visual Growth Reduction (%) 14 Days After Application, HELAN
[9] = VIOTR: wild pansy (Viola tricolor), read-out: Visual Growth Reduction (%) 14 Days After Application, VIOTR
[10] = CYPES: yellow nutsedge (Cyperus esculentus), read-out: Visual Growth Reduction (%) 14 Days After Application, CYPES
[11] = DIGSA: crabgrass (Digitaria sanguinalis), read-out: Visual Growth Reduction (%) 14 Days After Application, DIGSA
[12] = ECHCG: barnyardgrass (Echinochloa crus-galli), read-out: Visual Growth Reduction (%) 14 Days After Application, ECHCG
[13] = ORYSA: rice (Oryza sativa), crop, read-out: Visual Growth Reduction (%) 14 Days After Application, ORYSA
[14] = SETFA: giant foxtail (Setaria faberi), read-out: Visual Growth Reduction (%) 14 Days After Application, SETFA
[15] = SORVU: grain sorghum (Sorghum vulgare), read-out: Visual Growth Reduction (%) 14 Days After Application, SORVU
[16] = TRZSS (wheat, Triticum aestivum), crop, read-out: Visual Growth Reduction (%) 14 Days After Application, TRZSS
[17] = ZEAMX: maize, corn (Zea mays), crop, read-out: Visual Growth Reduction (%) 14 Days After Application, ZEAMX

melting point: 127 °C
SMILES: COC(=O)c1nc(-c2ccc(C)c(F)c2)c(F)c(N)c1Cl [Compound 213]
pest or weed control at 66 g/ha [1, 3]: 95 to 100% | pest or weed control at 132 g/ha [1, 3]: 95 to 100% | pest or weed control at 66 g/ha [1, 4]: 95 to 100% | pest or weed control at 132 g/ha [1, 4]: 95 to 100% | pest or weed control at 66 g/ha [1, 5]: 85 to 94% | pest or weed control at 132 g/ha [1, 5]: 85 to 94% | pest or weed control at 66 g/ha [1, 6]: 95 to 100% | pest or weed control at 132 g/ha [1, 6]: 95 to 100% | pest or weed control at 66 g/ha [1, 7]: 95 to 100% | pest or weed control at 132 g/ha [1, 7]: 95 to 100% | pest or weed control at 66 g/ha [1, 8]: 95 to 100% | pest or weed control at 132 g/ha [1, 8]: 95 to 100% | pest or weed control at 66 g/ha [1, 9]: 0 to 29% | pest or weed control at 132 g/ha [1, 9]: 0 to 29% | pest or weed control at 66 g/ha [2, 10]: 0 to 29% | pest or weed control at 132 g/ha [2, 10]: 45 to 59% | pest or weed control at 66 g/ha [2, 11]: 0 to 29% | pest or weed control at 132 g/ha [2, 11]: 0 to 29% | pest or weed control at 66 g/ha [2, 12]: 85 to 94% | pest or weed control at 132 g/ha [2, 12]: 85 to 94% | pest or weed control at 66 g/ha [2, 13]: 0 to 29% | pest or weed control at 132 g/ha [2, 13]: 0 to 29% | pest or weed control at 66 g/ha [2, 14]: 0 to 29% | pest or weed control at 132 g/ha [2, 14]: 0 to 29% | pest or weed control at 66 g/ha [2, 15]: 75 to 84% | pest or weed control at 132 g/ha [2, 15]: 95 to 100% | pest or weed control at 66 g/ha [2, 16]: 0 to 29% | pest or weed control at 132 g/ha [2, 16]: 0 to 29% | pest or weed control at 66 g/ha [2, 17]: 60 to 74% | pest or weed control at 132 g/ha [2, 17]: 75 to 84%
